From ChEMBL document CHEMBL1142871, “Flipped out: structure-guided design of selective pyrazolylpyrrole ERK inhibitors” (J Med Chem, 2007) come the findings set out here.

Assay [1] has as its target Mitogen-activated protein kinase 1 (Homo sapiens, UniProt P28482). Briefly: Inhibition of ERK2 by spectrophotometric coupled-enzyme assay.
Assay [2] addresses Mitogen-activated protein kinase 10 (Homo sapiens, UniProt P53779). Nature of the assay: Inhibition of JNK3 at 10 nM by spectrophotometric coupled-enzyme assay.
Assay [3] has as its target cAMP-dependent protein kinase (PKA) (Homo sapiens, UniProt P22694+P17612+P22612). Briefly: Inhibition of PKA. The class given is protein assay.
Assay [4] has as its target T1, Receptor-type tyrosine-protein kinase FLT3 (Homo sapiens, UniProt P36888).
T1 sequence (P36888 whole entry): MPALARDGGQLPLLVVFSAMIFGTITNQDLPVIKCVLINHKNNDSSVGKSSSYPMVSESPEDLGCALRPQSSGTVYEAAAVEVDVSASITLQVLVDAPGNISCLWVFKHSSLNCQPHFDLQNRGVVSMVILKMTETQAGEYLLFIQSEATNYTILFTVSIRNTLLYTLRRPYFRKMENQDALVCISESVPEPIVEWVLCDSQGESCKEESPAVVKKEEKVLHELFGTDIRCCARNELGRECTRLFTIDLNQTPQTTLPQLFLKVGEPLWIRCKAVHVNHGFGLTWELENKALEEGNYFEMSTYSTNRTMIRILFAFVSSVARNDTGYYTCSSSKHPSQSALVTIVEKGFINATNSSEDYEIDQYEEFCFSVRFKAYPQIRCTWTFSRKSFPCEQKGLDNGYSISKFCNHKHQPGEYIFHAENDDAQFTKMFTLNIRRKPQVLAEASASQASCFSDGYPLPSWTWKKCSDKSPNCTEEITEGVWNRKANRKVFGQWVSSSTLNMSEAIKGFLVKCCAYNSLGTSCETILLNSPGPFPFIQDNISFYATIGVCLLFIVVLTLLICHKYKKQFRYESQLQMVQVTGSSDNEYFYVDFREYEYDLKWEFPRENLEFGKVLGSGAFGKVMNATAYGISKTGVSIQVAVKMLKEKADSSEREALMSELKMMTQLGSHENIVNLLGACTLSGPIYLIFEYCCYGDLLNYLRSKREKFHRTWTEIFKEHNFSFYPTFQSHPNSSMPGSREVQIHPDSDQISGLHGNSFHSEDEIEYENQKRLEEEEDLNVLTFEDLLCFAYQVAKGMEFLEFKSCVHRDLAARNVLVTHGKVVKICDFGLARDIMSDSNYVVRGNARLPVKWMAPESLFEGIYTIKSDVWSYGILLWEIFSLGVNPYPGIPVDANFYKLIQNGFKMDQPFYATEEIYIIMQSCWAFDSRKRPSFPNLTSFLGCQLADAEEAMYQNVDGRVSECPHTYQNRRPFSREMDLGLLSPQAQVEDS
Briefly: Inhibition of FLT3 kinase.

Assay [5] deals with Proto-oncogene tyrosine-protein kinase Src (Homo sapiens, UniProt P12931). Briefly: Inhibition of SRC kinase.
Chain of Proto-oncogene tyrosine-protein kinase Src (P12931 2-536 limits assumed): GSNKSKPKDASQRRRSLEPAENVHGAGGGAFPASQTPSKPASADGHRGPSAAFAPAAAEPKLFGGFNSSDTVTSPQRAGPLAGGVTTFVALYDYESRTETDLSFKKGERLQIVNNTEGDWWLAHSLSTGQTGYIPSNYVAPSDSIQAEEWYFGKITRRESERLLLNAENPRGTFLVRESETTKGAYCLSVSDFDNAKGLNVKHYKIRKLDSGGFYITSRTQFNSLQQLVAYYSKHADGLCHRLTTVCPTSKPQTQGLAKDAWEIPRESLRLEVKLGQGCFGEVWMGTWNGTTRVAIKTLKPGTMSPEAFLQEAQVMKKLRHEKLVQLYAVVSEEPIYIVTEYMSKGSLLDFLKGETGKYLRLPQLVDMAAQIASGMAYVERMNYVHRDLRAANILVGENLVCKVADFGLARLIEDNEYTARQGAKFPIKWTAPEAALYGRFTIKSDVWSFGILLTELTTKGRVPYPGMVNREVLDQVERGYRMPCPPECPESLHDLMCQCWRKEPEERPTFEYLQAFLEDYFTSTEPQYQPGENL
Assay [6] concerns the target RAC-gamma serine/threonine-protein kinase (Homo sapiens, UniProt Q9Y243). Briefly: Inhibition of AKT3 kinase.
For assay [7], the target named is Glycogen synthase kinase-3 (Homo sapiens, UniProt P49840+P49841). Briefly: Inhibition of GSK3. The class given is protein assay.
Assay [8] addresses Vascular endothelial growth factor receptor 2 (Homo sapiens, UniProt P35968). Briefly: Inhibition of KDR kinase.
For a further assay, the target named is T2, Aurora kinase A (Homo sapiens, UniProt O14965).
T2 sequence (O14965 whole entry): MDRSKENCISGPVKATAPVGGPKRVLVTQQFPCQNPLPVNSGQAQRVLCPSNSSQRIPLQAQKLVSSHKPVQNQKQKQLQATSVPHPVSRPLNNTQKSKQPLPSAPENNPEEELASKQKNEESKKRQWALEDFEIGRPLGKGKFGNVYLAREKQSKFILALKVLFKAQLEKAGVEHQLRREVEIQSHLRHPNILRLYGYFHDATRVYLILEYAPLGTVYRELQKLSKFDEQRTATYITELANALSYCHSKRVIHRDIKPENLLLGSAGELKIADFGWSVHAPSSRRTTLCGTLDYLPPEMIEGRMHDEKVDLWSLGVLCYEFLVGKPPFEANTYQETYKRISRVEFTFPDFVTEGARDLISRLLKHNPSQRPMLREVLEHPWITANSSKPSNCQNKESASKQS
Nature of the assay: Inhibition of AURA kinase.

The target in assay [9] is Cyclin-dependent kinase 2 (Homo sapiens, UniProt P24941). Nature of the assay: Inhibition of CDK2.
The target of assay [10] is Dual specificity mitogen-activated protein kinase kinase 1 (Homo sapiens, UniProt Q02750). Nature of the assay: Inhibition of MEK1.
Chain of Dual specificity mitogen-activated protein kinase kinase 1 (Q02750 whole entry): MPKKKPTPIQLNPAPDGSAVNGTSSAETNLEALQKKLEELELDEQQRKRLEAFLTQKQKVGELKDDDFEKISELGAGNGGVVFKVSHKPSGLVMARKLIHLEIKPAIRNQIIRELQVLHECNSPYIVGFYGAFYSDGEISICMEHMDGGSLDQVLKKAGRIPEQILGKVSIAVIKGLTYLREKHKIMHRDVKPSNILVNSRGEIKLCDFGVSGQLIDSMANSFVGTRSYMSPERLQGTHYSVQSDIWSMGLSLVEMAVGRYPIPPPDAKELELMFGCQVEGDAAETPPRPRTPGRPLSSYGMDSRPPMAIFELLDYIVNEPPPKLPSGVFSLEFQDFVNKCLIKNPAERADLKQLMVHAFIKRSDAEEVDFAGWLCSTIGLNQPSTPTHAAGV
Assay [11] concerns the target Mitogen-activated protein kinase 14 (Homo sapiens, UniProt Q16539). Briefly: Inhibition of p38 alpha kinase.
Another assay concerns COLO 205. Nature of the assay: Antiproliferative activity against Colo205 cells measured by [3H]thymidine incorporation after 48 hrs. The class given is functional, cell-based. To be noted: Homo sapiens. (In general: Uptake of a labelled nucleoside into DNA is a usual measure of proliferation.)

Chain of Mitogen-activated protein kinase 1 (P28482 whole entry): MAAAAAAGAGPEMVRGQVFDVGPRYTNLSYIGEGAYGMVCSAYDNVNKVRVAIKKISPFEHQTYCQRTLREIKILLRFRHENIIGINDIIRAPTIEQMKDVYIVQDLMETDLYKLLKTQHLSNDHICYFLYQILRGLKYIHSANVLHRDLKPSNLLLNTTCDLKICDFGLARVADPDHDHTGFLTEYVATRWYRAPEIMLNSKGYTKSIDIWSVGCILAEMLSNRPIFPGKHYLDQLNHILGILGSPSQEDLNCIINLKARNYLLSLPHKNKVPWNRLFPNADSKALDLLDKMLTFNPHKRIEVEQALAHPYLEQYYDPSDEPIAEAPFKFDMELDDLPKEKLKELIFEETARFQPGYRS
Chain of Mitogen-activated protein kinase 10 (P53779 whole entry): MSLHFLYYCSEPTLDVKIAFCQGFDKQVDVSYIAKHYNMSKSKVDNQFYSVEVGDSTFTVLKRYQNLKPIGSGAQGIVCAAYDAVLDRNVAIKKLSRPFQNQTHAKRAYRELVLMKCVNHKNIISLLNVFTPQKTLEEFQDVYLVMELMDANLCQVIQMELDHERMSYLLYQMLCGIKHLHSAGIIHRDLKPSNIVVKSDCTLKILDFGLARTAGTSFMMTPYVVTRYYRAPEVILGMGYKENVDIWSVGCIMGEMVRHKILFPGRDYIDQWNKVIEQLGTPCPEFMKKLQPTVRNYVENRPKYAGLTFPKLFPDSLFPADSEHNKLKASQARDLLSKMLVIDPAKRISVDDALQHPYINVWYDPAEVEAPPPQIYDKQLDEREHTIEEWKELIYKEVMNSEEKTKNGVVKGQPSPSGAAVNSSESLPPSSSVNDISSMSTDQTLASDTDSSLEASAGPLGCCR
Chain of Mitogen-activated protein kinase 14 (Q16539 whole entry): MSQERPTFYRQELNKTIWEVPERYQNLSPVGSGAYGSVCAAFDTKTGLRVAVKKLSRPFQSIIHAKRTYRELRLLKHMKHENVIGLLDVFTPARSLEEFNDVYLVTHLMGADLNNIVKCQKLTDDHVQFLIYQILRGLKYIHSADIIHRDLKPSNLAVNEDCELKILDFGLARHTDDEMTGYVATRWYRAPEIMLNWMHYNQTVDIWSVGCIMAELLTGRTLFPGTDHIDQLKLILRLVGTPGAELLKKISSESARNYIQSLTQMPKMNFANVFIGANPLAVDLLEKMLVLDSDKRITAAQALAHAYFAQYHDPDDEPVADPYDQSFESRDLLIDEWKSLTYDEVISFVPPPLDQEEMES
Chain of RAC-gamma serine/threonine-protein kinase (Q9Y243 whole entry): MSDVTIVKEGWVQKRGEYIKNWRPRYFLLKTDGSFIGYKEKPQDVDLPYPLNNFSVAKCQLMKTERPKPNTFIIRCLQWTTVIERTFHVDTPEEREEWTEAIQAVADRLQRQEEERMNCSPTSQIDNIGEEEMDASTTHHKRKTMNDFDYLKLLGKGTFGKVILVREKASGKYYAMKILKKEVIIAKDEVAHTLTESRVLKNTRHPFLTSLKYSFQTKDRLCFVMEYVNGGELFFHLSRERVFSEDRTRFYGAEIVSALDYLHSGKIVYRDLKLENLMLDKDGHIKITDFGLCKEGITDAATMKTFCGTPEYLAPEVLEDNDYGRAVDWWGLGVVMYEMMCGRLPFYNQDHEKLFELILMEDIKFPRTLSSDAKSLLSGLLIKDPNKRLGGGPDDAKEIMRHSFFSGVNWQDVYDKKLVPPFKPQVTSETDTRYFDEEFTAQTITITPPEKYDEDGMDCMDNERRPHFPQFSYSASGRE
Chain of Vascular endothelial growth factor receptor 2 (P35968 whole entry): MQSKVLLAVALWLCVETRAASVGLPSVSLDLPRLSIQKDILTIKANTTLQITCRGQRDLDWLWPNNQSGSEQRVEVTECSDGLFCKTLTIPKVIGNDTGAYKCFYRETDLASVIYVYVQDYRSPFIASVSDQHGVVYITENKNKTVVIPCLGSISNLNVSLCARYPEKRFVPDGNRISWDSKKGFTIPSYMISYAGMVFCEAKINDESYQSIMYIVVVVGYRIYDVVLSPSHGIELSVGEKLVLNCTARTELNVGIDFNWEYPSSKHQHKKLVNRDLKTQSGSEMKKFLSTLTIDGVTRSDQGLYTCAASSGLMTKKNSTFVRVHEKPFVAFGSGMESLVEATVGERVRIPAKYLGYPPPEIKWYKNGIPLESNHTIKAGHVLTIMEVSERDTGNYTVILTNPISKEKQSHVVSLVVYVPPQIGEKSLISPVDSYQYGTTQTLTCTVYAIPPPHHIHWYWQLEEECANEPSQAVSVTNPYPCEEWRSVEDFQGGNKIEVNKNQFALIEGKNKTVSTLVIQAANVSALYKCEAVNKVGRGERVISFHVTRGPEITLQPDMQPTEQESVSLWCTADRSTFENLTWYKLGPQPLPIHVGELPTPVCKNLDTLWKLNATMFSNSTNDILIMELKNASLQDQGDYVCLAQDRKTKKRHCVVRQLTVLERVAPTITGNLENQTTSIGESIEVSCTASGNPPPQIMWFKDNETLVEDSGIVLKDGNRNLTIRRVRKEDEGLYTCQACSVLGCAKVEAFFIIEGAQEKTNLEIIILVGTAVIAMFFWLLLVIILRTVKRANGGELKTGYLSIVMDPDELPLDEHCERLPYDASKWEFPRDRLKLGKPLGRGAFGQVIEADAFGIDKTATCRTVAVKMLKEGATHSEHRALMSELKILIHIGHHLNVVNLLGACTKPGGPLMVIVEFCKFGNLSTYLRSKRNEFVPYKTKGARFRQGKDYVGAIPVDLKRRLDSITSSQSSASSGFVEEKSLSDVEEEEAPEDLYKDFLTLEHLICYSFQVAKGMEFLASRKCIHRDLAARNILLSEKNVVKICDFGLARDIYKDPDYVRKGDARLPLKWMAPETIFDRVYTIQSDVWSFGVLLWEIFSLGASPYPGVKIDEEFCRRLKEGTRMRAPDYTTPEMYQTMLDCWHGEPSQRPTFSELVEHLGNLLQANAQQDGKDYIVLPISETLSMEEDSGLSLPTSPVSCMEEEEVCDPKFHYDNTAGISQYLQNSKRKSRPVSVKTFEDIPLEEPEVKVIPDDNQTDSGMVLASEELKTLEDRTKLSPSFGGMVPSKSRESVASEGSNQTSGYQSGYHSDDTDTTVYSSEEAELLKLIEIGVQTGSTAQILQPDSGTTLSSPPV

`O=C(N[C@H](C(=O)O)c1ccccc1)c1cc(-c2n[nH]cc2-c2cccc(Cl)c2)c[nH]1`: the Ki (as a rule, the equilibrium dissociation constant of an inhibitor or competing ligand from its target) is > 5000 nM in [1] and > 4 µM in assay [2].

As to `O=C(NCC1CCCO1)c1cc(-c2[nH]ncc2-c2cccc(Cl)c2)c[nH]1` (stereo not given), in assay [2], the Ki is 2.7 µM. This lies in the single-digit micromolar range.

For `O=C(NC(CO)c1ccc(F)c(F)c1)c1cc(-c2n[nH]cc2-c2cccc(Cl)c2)c[nH]1` (stereo not given), the Ki in assay [1] worked out at 22 nM; in assay [2], 2.8 µM.

For the compound `CN(C)C(=O)c1cc(-c2n[nH]cc2-c2ccccc2)c[nH]1`, in [2], the Ki is > 4 µM.

For `O=C(NC(CO)c1cccc(F)c1)c1cc(-c2[nH]ncc2-c2cccc(Cl)c2)c[nH]1` (stereo not given), the inhibition constant (Ki) in assay [1] amounted to 24 nM; in assay [2], 3 µM.

For `O=C(NC(CO)c1ccccc1F)c1cc(-c2[nH]ncc2-c2cccc(Cl)c2)c[nH]1` (stereo not given), the results for the inhibition constant Ki in assay [1] and in [2] were 240 nM and 3.1 µM, respectively.

Consider `O=C(NC(CO)c1ccc(F)c(Cl)c1)c1cc(-c2[nH]ncc2-c2cccc(Cl)c2)c[nH]1` (stereo not given), for which the affinity in [1], expressed as Ki, was 6 nM.

With `CNC(=O)[C@@H](NC(=O)c1cc(-c2[nH]ncc2-c2cccc(Cl)c2)c[nH]1)c1ccccc1`, the results for the inhibition constant Ki in assay [1] and in assay [2] were 2300 nM and 3.9 µM, respectively.

With `O=C(c1cc(-c2[nH]ncc2-c2cccc(Cl)c2)c[nH]1)N1CCCC1`, the Ki in assay [1] came to 200 nM; in assay [2], 1.8 µM.

On to `O=C(N[C@H](CO)c1ccccc1)c1cc(-c2[nH]ncc2-c2cccc(Cl)c2)c[nH]1`, for which, in assay [2], affinity was put at a Ki of 2.8 µM. In other words, the single-digit micromolar range.

`O=C(NC1c2ccccc2CC1O)c1cc(-c2[nH]ncc2-c2cccc(Cl)c2)c[nH]1` (stereo not given): the inhibition constant (Ki) in assay [1] was 4000 nM; in assay [2], 3.2 µM.

As for `O=C(NOCc1ccccc1)c1cc(-c2[nH]ncc2-c2cccc(Cl)c2)c[nH]1`, affinity in [2] was put at a Ki of 2.9 µM.

For `O=C(N[C@@H](CO)c1ccc(F)c(Cl)c1)c1cc(-c2n[nH]cc2-c2cccc(Cl)c2)c[nH]1`, the inhibition constant (Ki) in assay [1] is 150 nM; in assay [2], > 4 µM.

Consider `NC(=O)[C@@H](NC(=O)c1cc(-c2[nH]ncc2-c2cccc(Cl)c2)c[nH]1)c1ccccc1`, for which the Ki was determined as 510 nM in [1] and 3.3 µM in assay [2].

`O=C(NC(CO)c1cc(Cl)cc(Cl)c1)c1cc(-c2n[nH]cc2-c2cccc(Cl)c2)c[nH]1` (stereo not given): the Ki in assay [1] is 7 nM; in assay [2], 3.4 µM.

`C[C@H](NC(=O)c1cc(-c2n[nH]cc2-c2cccc(Cl)c2)c[nH]1)c1ccccc1`: the values for the Ki in [1] and in assay [2] were 660 nM and > 4 µM, respectively.

With `O=C(NCc1ccc(F)c(F)c1)c1cc(-c2n[nH]cc2-c2cccc(Cl)c2)c[nH]1`, the figures for the Ki in [1] and in [2] were 40 nM and 0.79 µM, respectively.

As for `O=C(NC(CO)c1ccc(C(F)(F)F)cc1)c1cc(-c2n[nH]cc2-c2cccc(Cl)c2)c[nH]1` (stereo not given), the values for the inhibition constant Ki in assay [1] and in [2] were 44 nM and 2.7 µM, respectively.

Take `COc1ccc(CNC(=O)c2cc(-c3n[nH]cc3-c3cccc(Cl)c3)c[nH]2)cc1`: the Ki in assay [1] worked out at 490 nM; in assay [2], 0.84 µM.

With `O=C(NCCc1cccnc1)c1cc(-c2[nH]ncc2-c2cccc(Cl)c2)c[nH]1`, the Ki in assay [1] is 330 nM; in [2], > 4 µM.

As to `C[C@@H](NC(=O)c1cc(-c2n[nH]cc2-c2cccc(Cl)c2)c[nH]1)c1ccccc1`, the Ki was 100 nM in assay [1] and 3.1 µM in [2].

Consider `CCN1CCCC1CNC(=O)c1cc(-c2n[nH]cc2-c2cccc(Cl)c2)c[nH]1` (stereo not given), for which the results for the inhibition constant Ki in assay [1] and in [2] were > 10000 nM and > 4 µM, respectively.

On to `CN(Cc1ccccc1)C(=O)c1cc(-c2[nH]ncc2-c2cccc(Cl)c2)c[nH]1`, for which the inhibition constant Ki in [1] was 440 nM; in [2], > 4 µM.

On to `O=C(NC(CO)c1ccc(F)cc1)c1cc(-c2n[nH]cc2-c2cccc(Cl)c2)c[nH]1` (stereo not given), for which the inhibition constant (Ki) was 63 nM in [1] and > 4 µM in assay [2].

For the compound `CCN(C)C(=O)c1cc(-c2n[nH]cc2-c2cccc(Cl)c2)c[nH]1`, in assay [2], the inhibitory constant (Ki) is > 4 µM.

For `O=C(NC(CO)c1ccc(Cl)cc1)c1cc(-c2n[nH]cc2-c2cccc(Cl)c2)c[nH]1` (stereo not given), the figures for the Ki in assay [1] and in assay [2] were 14 nM and 2.5 µM, respectively.

Turning to `O=C(c1cc(-c2[nH]ncc2-c2cccc(Cl)c2)c[nH]1)N1CCc2ccccc2C1`, the figures for the inhibition constant Ki in assay [1] and in assay [2] were 510 nM and > 4 µM, respectively.

On to `O=C(N[C@H](CO)c1ccc(F)c(Cl)c1)c1cc(-c2n[nH]cc2-c2cccc(Cl)c2)c[nH]1`, for which the inhibition constant Ki in assay [2] was > 4 µM; in assay [3] it was 0.39 µM; in assay [4] it was 750 nM; in assay [5], 1100 nM; in assay [6], 1800 nM; in [7], 3.3 µM. The inhibitory constant (Ki) is 3.9 µM in assay [8]; > 4 µM at Aurora kinase A; > 4 µM in assay [9]; > 4 µM in [10]; > 4 µM in assay [11]. Further, the midpoint of inhibition with COLO 205, the IC50, lay at 540 nM.
